ChEMBL document CHEMBL5724696, “Autophagy assay results for EUbOPEN Chemogenomics Library” (2024)
Several values for one entry are separate records, joined by “and”; a condition that tells them apart may be missing. Equal values may be shown once.

How the values were obtained:
Assay type in all cases: functional, Homo sapiens
TERT-RPE1 = experiment: (§1) Here: values are normalized to the negative (DMSO; defined as 0% autophagy induction) and positive (250nM Torin1; mTOR inhibitor; defined as maximal inducer of autophagy = 100%) control compounds and represented as % of autophagy induction. […] The impact of autophagy induction on cells is complex and depends on the affected target. As such, the magnitude of a phenotype may not be equally mirrored in the %-value of autophagy induction and vice versa. The dynamics of the induction may indicate the mode of activation: e.g. activation via phosphorylation or a signaling cascade may occur fast, while activation via transcription factors may take considerably longer. […] Of note, treatment concentrations may be sub-optimal for specific compounds, leading to false negative annotations.; conditions: Culturing Media DMEM/F12 (1:1), 1 % Penicillin/Streptomycin, 10% Fetal bovin serum Add-On: No, Screening Media Control DMEM/F12 (1:1), Screening Media Samples DMEM/F12 (1:1)
U2OS [1] = experiment: as §1; conditions: Culturing Media DMEM, 1 % Penicillin/Streptomycin, 10% Fetal bovin serum Add-On: No, Screening Media Control DMEM, Screening Media Samples DMEM
U2OS [2] = experiment: as §1; conditions: Culturing Media DMEM, 1 % Penicillin/Streptomycin, 10% Fetal bovin serum Add-On: No, Screening Media Control DMEM, Screening Media Samples DMEM; remark: listed apart in the source
[3] = Compound Concentration 0.5 uM, Timepoint 12 hours
[4] = Compound Concentration 0.5 uM, Timepoint 24 hours
[5] = Compound Concentration 0.5 uM, Timepoint 36 hours
[6] = Compound Concentration 0.5 uM, Timepoint 60 hours
[7] = Compound Concentration 2 uM, Timepoint 12 hours
[8] = Compound Concentration 2 uM, Timepoint 24 hours
[9] = Compound Concentration 2 uM, Timepoint 36 hours
[10] = Compound Concentration 2 uM, Timepoint 60 hours
[11] = Compound Concentration 10 uM, Timepoint 12 hours
[12] = Compound Concentration 10 uM, Timepoint 24 hours
[13] = Compound Concentration 10 uM, Timepoint 36 hours
[14] = Compound Concentration 10 uM, Timepoint 60 hours

Row | Compound | autophagy induction (U2OS [1]; [3]) | autophagy induction (U2OS [1]; [4]) | autophagy induction (U2OS [1]; [5]) | autophagy induction (U2OS [1]; [6]) | autophagy induction (U2OS [1]; [7]) | autophagy induction (U2OS [1]; [8]) | autophagy induction (U2OS [1]; [9]) | autophagy induction (U2OS [1]; [10]) | autophagy induction (U2OS [1]; [11]) | autophagy induction (U2OS [1]; [12]) | autophagy induction (U2OS [1]; [13]) | autophagy induction (U2OS [1]; [14]) | autophagy induction (U2OS [2]; [3]) | autophagy induction (U2OS [2]; [4]) | autophagy induction (U2OS [2]; [5]) | autophagy induction (U2OS [2]; [6]) | autophagy induction (U2OS [2]; [7]) | autophagy induction (U2OS [2]; [8]) | autophagy induction (U2OS [2]; [9]) | autophagy induction (U2OS [2]; [10]) | also measured
1 | N#Cc1c(N)nc(SCC(N)=O)c(C#N)c1-c1ccc(OCC2CC2)cc1 | 1.815% | -1.199% | -2.125% | -2.448% | 4.971% | 0.9116% | -0.4866% | -0.2456% | 12.9304% | 7.609% | 1.394% | 0.5911% | 13.384% | 10.3272% | 7.6764% | 5.5559% | 6.979% | 4.233% | 4.058% | 1.654% | autophagy induction (TERT-RPE1; [3]): -0.3512%; autophagy induction (TERT-RPE1; [4]): -0.4647%; autophagy induction (TERT-RPE1; [5]): -3.4426%; autophagy induction (TERT-RPE1; [6]): -13.7976%; autophagy induction (TERT-RPE1; [7]): 6.426%; autophagy induction (TERT-RPE1; [8]): 7.278%; autophagy induction (TERT-RPE1; [9]): 5.568%; autophagy induction (TERT-RPE1; [10]): -4.471%; autophagy induction (TERT-RPE1; [11]): 18.2835%; autophagy induction (TERT-RPE1; [12]): 21.4433%; autophagy induction (TERT-RPE1; [13]): 22.9122%; autophagy induction (TERT-RPE1; [14]): 26.9726%; autophagy induction (U2OS [2]; [11]): 28.6221%; autophagy induction (U2OS [2]; [12]): 28.519%; autophagy induction (U2OS [2]; [13]): 26.7564%; autophagy induction (U2OS [2]; [14]): 32.3548%
2 | CCCCCCCCCCCCCCCCOC[C@H](COP(=O)([O-])OCC[N+](C)(C)C)OC(C)=O | 2.963% | 0.1782% | 2280.79% | -1.799% | -5.387% | -3.326% | 2231.79% | -1.895% | -2.708% | -1.793% | 678.152% | 1.655% | 1.863% | 3.665% | -3.033% | -9.658% | 2.298% | -2.882% | -2.921% | -2.8% | autophagy induction (TERT-RPE1; Compound Concentration 0.5 uM, Timepoint 12 hours, 12 h, 0.5 µM): -0.9527% and 1.704%; autophagy induction (TERT-RPE1; Compound Concentration 0.5 uM, Timepoint 24 hours, 24 h, 0.5 µM): -3.436% and -0.1454%; autophagy induction (TERT-RPE1; Compound Concentration 0.5 uM, Timepoint 36 hours, 36 h, 0.5 µM): -3.259% and 2.221%; autophagy induction (TERT-RPE1; Compound Concentration 0.5 uM, Timepoint 60 hours, 60 h, 0.5 µM): -5.529% and 3.615%; autophagy induction (TERT-RPE1; Compound Concentration 2 uM, Timepoint 24 hours, 24 h, 2 µM): -0.2119% and 13.6511%; autophagy induction (TERT-RPE1; Compound Concentration 2 uM, Timepoint 36 hours, 36 h, 2 µM): -1.573% and 9.518%; autophagy induction (TERT-RPE1; Compound Concentration 2 uM, Timepoint 60 hours, 60 h, 2 µM): -2.541% and 14.6368%; autophagy induction (TERT-RPE1; Compound Concentration 10 uM, Timepoint 12 hours, 12 h, 10 µM): 8.2187% and 7.039%; autophagy induction (TERT-RPE1; Compound Concentration 10 uM, Timepoint 24 hours, 24 h, 10 µM): 4.065% and 6.451%; autophagy induction (TERT-RPE1; Compound Concentration 10 uM, Timepoint 36 hours, 36 h, 10 µM): 4.665% and 7.035%; autophagy induction (TERT-RPE1; Compound Concentration 10 uM, Timepoint 60 hours, 60 h, 10 µM): 6.217% and 11.8263%; autophagy induction (U2OS [2]; [11]): 10.6263%; autophagy induction (U2OS [2]; [12]): 0.8651%; autophagy induction (U2OS [2]; [13]): 6.18%; autophagy induction (U2OS [2]; [14]): 5.674%
